Measurements reported in PubChem BioAssay (NCI).
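Grown in 96-well plates, cells were treated for 48 hours with each compound at five concentrations. Insufficient inhibition: endpoint recorded as highest concentration tested. The concentration for 50% growth inhibition is given as GI50. TGI marks complete inhibition of growth.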

Columns and labels:
Experiment in all cases: NCI anticancer screen, dose series, 48 h
M14 melanoma = tested on: M14 melanoma
HOP-92 NSCLC = tested on: HOP-92 NSCLC
NCI-H460 lung = tested on: NCI-H460 lung
HT29 colon = tested on: HT29 colon
UACC-62 melanoma = tested on: UACC-62 melanoma
HCC-2998 colon = tested on: HCC-2998 colon
OVCAR-3 ovarian = tested on: OVCAR-3 ovarian
RPMI-8226 leukemia = tested on: RPMI-8226 leukemia
A498 renal = tested on: A498 renal
HS 578T breast = tested on: HS 578T breast
ACHN renal = tested on: ACHN renal
CCRF-CEM leukemia = tested on: CCRF-CEM leukemia
NCI-H23 lung = tested on: NCI-H23 lung
HL-60(TB) leukemia = tested on: HL-60(TB) leukemia
EKVX NSCLC = tested on: EKVX NSCLC
SF-539 CNS = tested on: SF-539 CNS
MDA-MB-231 breast = tested on: MDA-MB-231 breast
TK-10 renal = tested on: TK-10 renal
NCI-H522 lung = tested on: NCI-H522 lung
SW-620 colon = tested on: SW-620 colon
PC-3 prostate = tested on: PC-3 prostate
RXF 393 renal = tested on: RXF 393 renal
COLO 205 colon = tested on: COLO 205 colon
OVCAR-8 ovarian = tested on: OVCAR-8 ovarian
BT-549 breast = tested on: BT-549 breast
HCT-15 colon = tested on: HCT-15 colon
SF-268 CNS = tested on: SF-268 CNS
OVCAR-5 ovarian = tested on: OVCAR-5 ovarian
KM12 colon = tested on: KM12 colon

Cc1cc(Oc2ccccc2)ccc1Nc1ncnc2ccc(-c3cnc(Cl)c(NS(C)(=O)=O)c3)cc12
GI50 (M14 melanoma): 2.04 µM
TGI (M14 melanoma): 12.9 µM
GI50 (HOP-92 NSCLC): 0.246 µM
TGI (HOP-92 NSCLC): 1.38 µM
GI50 (NCI-H460 lung): 1.71 µM
TGI (NCI-H460 lung): 12.5 µM
GI50 (HT29 colon): 1.5 µM
TGI (HT29 colon): 12.1 µM
GI50 (UACC-62 melanoma): 0.625 µM
TGI (UACC-62 melanoma): 2.11 µM
GI50 (HCC-2998 colon): 1.58 µM
TGI (HCC-2998 colon): 3.75 µM
GI50 (OVCAR-3 ovarian): 0.855 µM
TGI (OVCAR-3 ovarian): 2.6 µM
GI50 (RPMI-8226 leukemia): 2.18 µM
TGI (RPMI-8226 leukemia): 6.07 µM
GI50 (A498 renal): 1.38 µM
TGI (A498 renal): 3.97 µM
GI50 (HS 578T breast): 0.587 µM
TGI (HS 578T breast): 6.81 µM
GI50 (ACHN renal): 2.45 µM
TGI (ACHN renal): 15.5 µM
GI50 (CCRF-CEM leukemia): 1.32 µM
TGI (CCRF-CEM leukemia): 15.6 µM
GI50 (NCI-H23 lung): 2.18 µM
TGI (NCI-H23 lung): 9.56 µM
GI50 (HL-60(TB) leukemia): 1.55 µM
TGI (HL-60(TB) leukemia): 13.7 µM
GI50 (EKVX NSCLC): 1.49 µM
TGI (EKVX NSCLC): 10.6 µM
GI50 (SF-539 CNS): 1.01 µM
TGI (SF-539 CNS): 3.62 µM
GI50 (MDA-MB-231 breast): 1.62 µM
TGI (MDA-MB-231 breast): 4.22 µM
GI50 (TK-10 renal): 1.79 µM
TGI (TK-10 renal): 20.8 µM
GI50 (NCI-H522 lung): 2.3 µM
TGI (NCI-H522 lung): 10.3 µM
GI50 (SW-620 colon): 2.38 µM
TGI (SW-620 colon): 13.1 µM
GI50 (PC-3 prostate): 1.45 µM
TGI (PC-3 prostate): 10.5 µM
GI50 (RXF 393 renal): 1.32 µM
TGI (RXF 393 renal): 3.84 µM
GI50 (COLO 205 colon): 1.45 µM
TGI (COLO 205 colon): 3.78 µM
GI50 (OVCAR-8 ovarian): 3.39 µM
TGI (OVCAR-8 ovarian): 19 µM
GI50 (BT-549 breast): 1.16 µM
TGI (BT-549 breast): 4.5 µM
GI50 (HCT-15 colon): 1.73 µM
TGI (HCT-15 colon): 10.7 µM
GI50 (SF-268 CNS): 1.64 µM
TGI (SF-268 CNS): 12.6 µM
GI50 (OVCAR-5 ovarian): 0.544 µM
TGI (OVCAR-5 ovarian): 3.66 µM
GI50 (KM12 colon): 2.17 µM
TGI (KM12 colon): 7.43 µM
